Key:
human CRF1 receptor = molecular target: T1, human CRF1 receptor (Homo sapiens, UniProt P34998); assay: Measurement of CRF Binding Inhibitory Rate (receptor binding experiment with 125I-CRF); settings: human CRF1 receptor expressing CHO cellular membrane fraction, 50 pM 125I-CRF, room temperature 1.5 hr, 0.05 nM to 10 μM of compound; read-out: IC50 values (CRF binding inhibition)
T1 construct: expressed in transfected cells; host or cells: CHO cells (membrane fraction)
T1 sequence (P34998 24-415): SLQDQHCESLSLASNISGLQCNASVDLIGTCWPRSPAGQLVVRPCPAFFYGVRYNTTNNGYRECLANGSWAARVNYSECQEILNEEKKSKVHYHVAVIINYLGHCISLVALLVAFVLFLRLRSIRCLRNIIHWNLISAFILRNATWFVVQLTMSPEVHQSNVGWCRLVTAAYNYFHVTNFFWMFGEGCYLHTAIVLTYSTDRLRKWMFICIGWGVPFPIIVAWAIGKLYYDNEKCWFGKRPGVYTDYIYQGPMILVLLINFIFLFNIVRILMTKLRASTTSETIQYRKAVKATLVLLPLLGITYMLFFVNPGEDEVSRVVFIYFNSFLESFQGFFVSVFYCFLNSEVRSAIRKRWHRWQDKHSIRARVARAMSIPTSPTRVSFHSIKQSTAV

Row | Structure (SMILES) | IC50 (human CRF1 receptor) | melting point
1 | CCC(OC(C)=O)c1ccc(Cl)c2nc3n(c12)CCCN3c1ccc(Cl)cc1Cl (racemic) [Example 238, 1-[9-Chloro-1-(2,4-dichlorophenyl)-1,2,3,4-tetrahydropyrimido[1,2-a]benzimidazol-6-yl]propyl acetate] | < 1000 nM | 174 to 176 °C
2 | CCC(OC(C)=O)c1ccc(Cl)c2nc3n(c12)CCCN3c1ccc(OC)nc1C (racemic) [Example 265, 1-[9-Chloro-1-(6-methoxy-2-methylpyridin-3-yl)-1,2,3,4-tetrahydropyrimido[1,2-a]benzimidazol-6-yl]propyl acetate] | < 1000 nM | 157 to 159 °C
3 | CCC(CC)c1ccc(Cl)c2nc3n(c12)CCN3c1ccc(Cl)cc1Cl [Example 3, 8-Chloro-1-(2,4-dichlorophenyl)-5-(1-ethylpropyl)-2,3-dihydro-1H-imidazo[1,2-a]benzimidazole] | < 1000 nM | 171 to 173 °C
4 | CCC(CC)c1ccc(Cl)c2nc3n(c12)CC(=O)N3c1ccc(Cl)cc1Cl [Example 4, 8-Chloro-1-(2,4-dichlorophenyl)-5-(1-ethylpropyl)-1H-imidazo[1,2-a]benzimidazol-2(3H)-one] | < 1000 nM | 200 to 202 °C
5 | CCC(CC)c1ccc(Cl)c2nc3n(c12)CCN3c1ccc(Cl)cc1Br [Example 5, 1-(2-Bromo-4-chlorophenyl)-8-chloro-5-(1-ethylpropyl)-2,3-dihydro-1H-imidazo[1,2-a]benzimidazole] | < 1000 nM | 169 to 171 °C
6 | CCC(CC)c1ccc(Cl)c2nc3n(c12)C(Cl)(Cl)C(=O)N3c1c(C)cc(Cl)cc1OC [Example 11, 3,3,8-Trichloro-1-(4-chloro-2-methoxy-6-methylphenyl)-5-(1-ethylpropyl)-1H-imidazo[1,2-a]benzimidazol-2(3H)-one] | < 1000 nM | 190 to 192 °C
7 | CCC(CC)c1ccc(Cl)c2nc3n(c12)CCN3c1ccc(Br)cc1Cl [Example 12, 1-(4-Bromo-2-chlorophenyl)-8-chloro-5-(1-ethylpropyl)-2,3-dihydro-1H-imidazo[1,2-a]benzimidazole] | < 1000 nM | 165 to 168 °C
8 | CCC(CC)c1ccc(Cl)c2nc3n(c12)CCN3c1ccc(C(N)=O)cc1Cl [Example 15, 3-Chloro-4-[8-chloro-5-(1-ethylpropyl)-2,3-dihydro-1H-imidazo[1,2-a]benzimidazol-1-yl]benzamide] | < 1000 nM | 225 to 229 °C
9 | CCC(CC)c1ccc(Cl)c2nc3n(c12)CCCCN3c1ccc(Cl)cc1Cl [Example 21, 10-Chloro-1-(2,4-dichlorophenyl)-7-(1-ethylpropyl)-2,3,4,5-tetrahydro-1H-[1,3]diazepino[1,2-a]benzimidazole] | < 1000 nM | 160 to 162 °C
10 | CCC(CC)c1ccc(Cl)c2nc3n(c12)CCN3C(=O)c1c(C)cc(C)cc1C [Example 229, 8-Chloro-5-(1-ethylpropyl)-1-[(2,4,6-trimethylphenyl)carbonyl]-2,3-dihydro-1H-imidazo[1,2-a]benzimidazole] | – | 234 to 236 °C
11 | CCOC(c1ccc(Cl)c2nc3n(c12)CCCN3c1ccc(OC)nc1C)C(F)(F)F (stereo not shown) [Example 281, 9-Chloro-6-(1-ethoxy-2,2,2-trifluoroethyl)-1-(6-methoxy-2-methylpyridin-3-yl)-1,2,3,4-tetrahydropyrimido[1,2-a]benzimidazole] | – | 168 to 170 °C
12 | Cc1nc(N2CCCC2)ccc1N1CCCn2c1nc1c(Cl)ccc(C(OC(F)F)C(F)(F)F)c12 (stereo not shown) [Example 294, 9-Chloro-6-[1-(difluoromethoxy)-2,2,2-trifluoroethyl]-1(2-methyl-6-pyrrolidin-1-ylpyridin-3-yl)-1,2,3,4-tetrahydropyrimido[1,2-a]benzimidazole] | – | 233 to 236 °C
13 | Cc1nc(N2CCCCC2)ccc1N1CCCn2c1nc1c(Cl)ccc(C(OC(F)F)C(F)(F)F)c12 (stereo not shown) [Example 295, 9-Chloro-6-[1-(difluoromethoxy)-2,2,2-trifluoroethyl]-1-(2-methyl-6-piperidin-1-ylpyridin-3-yl)-1,2,3,4-tetrahydropyrimido[1,2-a]benzimidazole] | – | 164 to 167 °C
14 | Cc1nc(N2CCOCC2)ccc1N1CCCn2c1nc1c(Cl)ccc(C(OC(F)F)C(F)(F)F)c12 (stereo not shown) [Example 296, 9-Chloro-6-[1-(difluoromethoxy)-2,2,2-trifluoroethyl]-1-(2-methyl-6-morpholin-4-ylpyridin-3-yl)-1,2,3,4-tetrahydropyrimido[1,2-a]benzimidazole] | – | 191 to 193 °C
15 | Cc1nc(N2CCN(C)CC2)ccc1N1CCCn2c1nc1c(Cl)ccc(C(OC(F)F)C(F)(F)F)c12 (stereo not shown) [Example 297, 9-Chloro-6-[1-(difluoromethoxy)-2,2,2-trifluoroethyl]-1-[2-methyl-6-(4-methylpiperazin-1-yl)pyridin-3-yl]-1,2,3,4-tetrahydropyrimido[1,2-a]benzimidazole] | – | 193 to 195 °C
16 | Cc1nc(NC2CC2)ccc1N1CCCn2c1nc1c(Cl)ccc(C(OC(F)F)C(F)(F)F)c12 (stereo not shown) [Example 299, 5-{9-Chloro-6-[1-(difluoromethoxy)-2,2,2-trifluoroethyl]-3,4-dihydropyrimido[1,2-a]benzimidazol-1(2H)-yl}-N-cyclopropyl-6-methylpyridin-2-amine] | – | 168 to 170 °C
17 | OC(c1ccc(Cl)c2nc3n(c12)CCCN3c1ccc(Cl)cc1Cl)(C(F)(F)F)C(F)(F)F [Example 319, 2-[9-Chloro-1-(2,4-dichlorophenyl)-1,2,3,4-tetrahydropyrimido[1,2-a]benzimidazol-6-yl]-1,1,1,3,3,3-hexafluoropropan-2-ol] | – | 237 to 240 °C
18 | CCC(O)c1ccc(Cl)c2nc3n(c12)CCCN3c1c(C)cc(Cl)cc1Cl (stereo not shown) [Example 380, 1-[9-Chloro-1-(2,4-dichloro-6-methylphenyl)-1,2,3,4-tetrahydropyrimido[1,2-a]benzimidazol-6-yl]propan-1-ol] | – | 210 to 211 °C
19 | O=S(=O)(CC(F)(F)F)NC(c1ccc(Cl)c2nc3n(c12)CCCN3c1c(Cl)cc(Cl)cc1Cl)C(F)(F)F (stereo not shown) [Example 417, N-{1-[9-Chloro-1-(2,4,6-trichlorophenyl)-1,2,3,4-tetrahydropyrimido[1,2-a]benzimidazol-6-yl]-2,2,2-trifluoroethyl}-2,2,2-trifluoroethanesulfonamide] | – | 237 to 239 °C
20 | OC(c1ccc(Cl)c2nc3n(c12)CCN3c1ccc(Cl)cc1Cl)(C1CC1)C1CC1 [Example 430, [8-Chloro-1-(2,4-dichlorophenyl)-2,3-dihydro-1H-imidazo[1,2-a]benzimidazol-5-yl](dicyclopropyl)methanol] | – | 238 to 239 °C
21 | CCC(NC(=O)C1CC1)c1ccc(Cl)c2nc3n(c12)CCCN3c1ccc(Cl)cc1Cl (stereo not shown) [Example 441, N-{1-[9-Chloro-1-(2,4-dichlorophenyl)-1,2,3,4-tetrahydropyrimido[1,2-a]benzimidazol-6-yl]propyl}cyclopropanecarboxamide] | – | 251 to 253 °C
22 | CCS(=O)(=O)Cc1ccc(Cl)c2nc3n(c12)CCCN3c1ccc(Cl)cc1Cl [Example 461, 9-Chloro-1-(2,4-dichlorophenyl)-6-[(ethylsulfonyl)methyl]-1,2,3,4-tetrahydropyrimido[1,2-a]benzimidazole] | – | 300 to 302 °C
23 | CCN(CC)c1cccc2nc3n(c12)CCOC3c1ccc(Cl)cc1Cl (stereo not shown) [Example 501, 1-(2,4-Dichlorophenyl)-N,N-diethyl-3,4-dihydro-1H-[1,4]oxazino[4,3-a]benzimidazol-6-amine] | – | 130 to 131 °C
24 | CCN(CC)c1cccc2nc3n(c12)CCCN(C)C3c1ccc(Cl)cc1Cl (stereo not shown) [Example 510, 1-(2,4-Dichlorophenyl)-N,N-diethyl-2-methyl-2,3,4,5-tetrahydro-1H-[1,4]diazepino[1,2-a]benzimidazol-7-amine] | – | 132 to 133 °C
25 | COc1nc(C)c(N2CCCn3c2nc2cccc(C(O)C(F)(F)F)c23)c(C)n1 (stereo not shown) [Example 517, 2,2,2-Trifluoro-1-[1-(2-methoxy-4,6-dimethylpyrimidin-5-yl)-1,2,3,4-tetrahydropyrimido[1,2-a]benzimidazol-6-yl]ethanol] | – | 296 to 299 °C
26 | COc1nc(C)c(N2CCCn3c2nc2c(Br)ccc(C(OC(F)F)C(F)(F)F)c23)c(C)n1 (stereo not shown) [Example 519, 9-Bromo-6-[1-(difluoromethoxy)-2,2,2-trifluoroethyl]-1-(2-methoxy-4,6-dimethylpyrimidin-5-yl)-1,2,3,4-tetrahydropyrimido[1,2-a]benzimidazole] | – | 211 to 213 °C
27 | COc1nc(C)c(N2CCCn3c2nc2c(C#N)ccc(C(OC(F)F)C(F)(F)F)c23)c(C)n1 (stereo not shown) [Example 520, 6-[1-(Difluoromethoxy)-2,2,2-trifluoroethyl]-1-(2-methoxy-4,6-dimethylpyrimidin-5-yl)-1,2,3,4-tetrahydropyrimido[1,2-a]benzimidazole-9-carbonitrile] | – | 250 to 252 °C
28 | COc1nc(C)c(N2CCCn3c2nc2c(OC)ccc(C(OC(F)F)C(F)(F)F)c23)c(C)n1 (stereo not shown) [Example 526, 6-[1-(Difluoromethoxy)-2,2,2-trifluoroethyl]-9-methoxy-1-(2-methoxy-4,6-dimethylpyrimidin-5-yl)-1,2,3,4-tetrahydropyrimido[1,2-a]benzimidazole] | – | 201 to 203 °C

Source: patent US8785460B2, “Tricyclic compounds and use thereof” (Takeda Pharmaceutical Company Limited, priority 2008, dated 2014)
